By IC50 is commonly meant the concentration at which inhibition is half-maximal.

For experiment [1], the target named is T1, CCK receptor (brain, cerebral cortex) (Cavia porcellus, UniProt H0VZC5).
T1 construct: Cerebral cortex was dissected and used as a receptor source; from tissue; host or cells: guinea pig cerebral cortex membranes (male Hartley)
T1 sequence (H0VZC5 1-426): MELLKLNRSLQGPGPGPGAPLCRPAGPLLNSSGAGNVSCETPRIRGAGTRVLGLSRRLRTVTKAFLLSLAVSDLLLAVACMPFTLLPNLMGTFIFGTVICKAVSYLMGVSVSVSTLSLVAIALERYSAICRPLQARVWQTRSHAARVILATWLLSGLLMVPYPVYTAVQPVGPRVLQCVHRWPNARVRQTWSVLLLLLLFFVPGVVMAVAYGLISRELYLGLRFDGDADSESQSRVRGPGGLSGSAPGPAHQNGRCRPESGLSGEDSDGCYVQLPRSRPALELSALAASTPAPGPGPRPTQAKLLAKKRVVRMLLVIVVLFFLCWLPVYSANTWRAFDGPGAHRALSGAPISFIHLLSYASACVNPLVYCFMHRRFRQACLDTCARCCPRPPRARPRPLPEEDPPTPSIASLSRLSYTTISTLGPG
The experiment can be described thus: biochemical. Format: binding, Male Hartley guinea pigs. How it is done: 2. CCK Recepto Binding (Brain)
CCK-33 was radiolabeled and the binding was Performed according to the description for the Pancreas method with modifications according to Saito et al., J. Neurochem.
Cerebral cortex was dissected and used as a receptor source. Each gram of fresh guinea pig brain tissue was homogenized in 10 ml of Tris/Trizma buffer with a Brinkman polytron PT-10. The homogenates were centrifuged at 42,000 g for 15 minutes. Pellets were resuspended in Tris Buffer, centrifuged as above and resuspended in 200 volumes of binding assay buffer (10 mM N-2-hydroxyethyl-piperazine-N'-2-ethane sulfonic acid (HEPES), 5 mM MgCl2, 0.25 mg/ml bacitracin, 1 mM ethylene glycol-bis-(β-aminoethylether-N,N'-tetraacetic acid) (EGTA), and 0.4% bovine serum albumin (BSA)). […] All assays were run in duplicate or triplicate. The reaction mixtures were incubated at 25° C. for 2 hours and centrifuged in a Beckman Microfuge (4 minutes) immediately after adding 1 ml of ice-cold incubation buffer. The supernatant was aspirated and discarded, pellets were counted with a Beckman gamma 5000.

For experiment [2], the target named is T2, Gastrin receptor (gastric glands) (Cavia porcellus, UniProt H0VZC5).
T2 construct: The washed guinea pig gastric glands prepared as above were resuspended; from tissue; host or cells: guinea pig gastric mucosal glands (male Hartley)
T2 sequence (H0VZC5 1-426): T1 sequence (H0VZC5 1-426)
The experiment in a line: Gastrin Receptor Binding in Guinea Pig Gastric Glands. On the set-up: species or system guinea pig (male Hartley).

Where [3] appears, read: IC50 ^125 I-CCK Brain, guinea pig cerebral cortex, ^125 I-CCK-33, 25° C., 2 hours.
[4] abbreviates: ^125 I-gastrin, 25° C., 30 minutes, read-out: IC50 ^125 I-Gastrin Gastric Glands.
Setting [5] is: IC50 ^125 I-Gastrin Gastric Glands, 25° C., 30 minutes.

Like-named read-outs stand apart in the source and are kept apart here. A value given as a limit tells only on which side of the number the result lay.

For the molecule `CC(C)(C)OC(=O)N[C@@H](Cc1ccccc1)C(=O)NC1N=C(c2ccccc2)c2ccccc2NC1=O` (mixture of isomers) [Example 82, 3(RS)-(2(S)-tert-Butoxycarbonylamino-3-phenylpropanoyl-amino)-1,3-dihydro-5-phenyl-2H-1,4-benzodiazepin-2-one], the IC50 is 12 µM in experiment [1] (setting [3]) and more than 100 µM in experiment [2] (setting [4]).

With `CN1C(=O)C(NC(=O)[C@H](Cc2ccccc2)NC(=O)OC(C)(C)C)N=C(c2ccccc2)c2ccccc21` (mixture of isomers) [Example 83, 3(RS)-(2(S)-tert-Butoxycarbonylamino-3-phenylpropanoyl-amino)-1,3-dihydro-1-methyl-5-phenyl-2H-1,4-benzodi-azepin-2-one], the IC50 in experiment [1] (guinea pig cerebral cortex, ^125 I-CCK-33, 25° C., 2 hours; read-out: IC50 ^125 I-CCK Brain) is 13 µM; in experiment [2] (setting [4]), 26 µM.

`O=C(NCC1N=C(c2ccccc2F)c2ccccc2NC1=O)OCc1ccccc1` (racemic) [Example 66, 1,3-Dihydro-5-(2'-fluorophenyl)-3(RS)-(benzyloxycarbonyl)aminomethyl-2H-1,4-benzodiazepin-2-one]: the IC50 was 100 µM in experiment [1] (setting [3]) and 7.4 µM in experiment [2] (setting [5]).

For the molecule `O=C(NCC1N=C(c2ccccc2F)c2ccccc2NC1=O)c1ccsc1` (racemic) [Example 67, 1,3-Dihydro-5-(2'-fluorophenyl)-3(RS)-(3-thiophene-carbonyl)aminomethyl-2H-1,4-benzodiazepin-2-one], the results for the IC50 in experiment [1] (setting [3]) and in experiment [2] (setting [5]) were 100 µM and 47 µM, respectively.

On to `O=C(NCC1N=C(c2ccccc2F)c2ccccc2NC1=O)c1cc2ccccc2[nH]1` (racemic) [Example 68, 1,3-dihydro-5-(2-fluorophenyl)-3(RS)-(2-indolecarbonylaminomethyl)-2H-1,4-benzodiazepin-2-one], for which the IC50 in experiment [1] (setting [3]) was 30 µM; in experiment [2] (setting [5]), more than 100 µM.

For the molecule `O=C1Nc2ccccc2C(c2ccccc2F)=NC1CNCC1N=C(c2ccccc2F)c2ccccc2NC1=O` (racemic) [Example 69, 1,3-Dihydro-3'-(RS)-[3'-(RS)-(1,3-dihydro-5-(2'-fluorophenyl)-2H-1,4-benzodiazepin-2-one)-3-yl]methylaminomethyl-5-(2'-fluorophenyl)-2H-1,4-benzodiazepin-2-one], the IC50 in experiment [1] (setting [3]) was more than 100 µM; in experiment [2] (setting [5]), 350 µM.

With `O=C(NC1N=C(c2ccccc2)c2ccccc2NC1=O)c1cc2ccccc2[nH]1` (racemic) [Example 73, 3(RS)-1,3-Dihydro-(2-indolecarbonylamino)-5-phenyl-2H-1,4-benzodiazepin-2-one], the IC50 is 8 µM in experiment [1] (setting [3]) and 4 µM in experiment [2] (setting [5]).

Turning to `O=C1Nc2ccccc2C(c2ccccc2)=NC1NCCc1c[nH]c2ccccc12` (racemic) [Example 74, 1,3-Dihydro-3(RS)-[2-(3-indolyl)ethyl]amino-5-phenyl-2H-1,4-benzodiazepin-2-one], the IC50 in experiment [1] (setting [3]) is 100 µM; in experiment [2] (setting [5]), more than 100 µM.

Turning to `O=C(CCc1c[nH]c2ccccc12)NC1N=C(c2ccccc2)c2ccccc2NC1=O` (racemic) [Example 75, 3(RS)-[3-(3-indolyl)propionylamino]-1,3-dihydro-5-phenyl-2H-1,4-benzodiazepin-2-one], the results for the IC50 in experiment [1] (setting [3]) and in experiment [2] (setting [5]) were 100 µM and 4.7 µM, respectively.

Take `O=C(Cc1c[nH]c2ccccc12)NC1N=C(c2ccccc2)c2ccccc2NC1=O` (racemic) [Example 76, 3(RS)-(3-indoleacetylamino)-1,3-dihydro-5-phenyl-2H-1,4-benzodiazepin-2-one]: the IC50 was 11 µM in experiment [1] (setting [3]) and 32 µM in experiment [2] (setting [5]).

For `O=C(O)CN1C(=O)C(NC(=O)c2cc3ccccc3[nH]2)N=C(c2ccccc2)c2ccccc21` (racemic) [Example 78, 1-Carboxymethyl-1,3-dihydro-3(RS)-(2-indolearbonyl-amino)-5-phenyl-2H-1,4-benzodiazepin-2-one], the values for the IC50 in experiment [1] (setting [3]) and in experiment [2] (setting [5]) were 5.5 µM and 0.65 µM, respectively.

For the molecule `CN1C(=O)C(NC(=O)c2ccc(Cl)cc2)N=C(c2ccccc2F)c2ccccc21` (racemic) [Example 80, 1,3-Dihydro-1-methyl-3(RS)-(4-chlorophenylcarbonyl)-amino-5-(2-fluoroohenyl)-2H-1,4-benzodiazeoin-2-one], the IC50 in experiment [1] (setting [3]) came to 3.4 µM; in experiment [2] (setting [4]) it was 2.9 µM.

As for `CN1C(=O)C(NC(=O)c2cc3ccccc3[nH]2)N=C(c2ccccc2F)c2ccccc21` (racemic) [Example 81a, 1,3-Dihydro-5-(2-fluorophenyl)-3(RS)-(2-indolecarbonyl-amino)-1-methyl-2H-1,4-benzodiazepin-2-one], the IC50 was 0.3 µM in experiment [1] (setting [3]) and 0.19 µM in experiment [2] (setting [4]).

Turning to `CN1C(=O)C(NC(=O)c2cc3ccccc3n2C)N=C(c2ccccc2F)c2ccccc21` (racemic) [Example 81b, 1,3-Dihydro-5-(2-fluorophenyl)-1-methyl-3(RS)-[2'-(1-methylindole)carbonylamino]-2H-1,4-benzodiazepin-2-one], the IC50 in experiment [1] (setting [3]) worked out at 1 µM; in experiment [2] (setting [5]), 1.6 µM.

Take `O=C(CCCc1c[nH]c2ccccc12)NC1N=C(c2ccccc2)c2ccccc2NC1=O` (racemic) [Example 97, 3(RS)-[4-(3-Indole)butyrylamino]-1,3-dihydro-5-phenyl-2H-1,4-benzodiazepin-2-one]: the IC50 in experiment [1] (setting [3]) is more than 100 µM; in experiment [2] (setting [5]), 200 µM.

On to `O=C(NCC1CNc2ccccc2C(c2ccccc2F)=N1)OCc1ccccc1` (racemic) [Example 98, 1,3-Dihydro-3(RS)-(benzyloxycarbonyl)aminomethyl-5-(2-fluorophenyl)-2H-1,4-benzodiazepine], for which the figures for the IC50 in experiment [1] (setting [3]) and in experiment [2] (setting [5]) were 100 µM and 86 µM, respectively.

With `O=C(NCC1CNc2ccccc2C(c2ccccc2F)=N1)c1ccsc1` (racemic) [Example 99, 1,3-Dihydro-3(RS)-[3'-(thiophene)carbonyl]amino-methyl-5-(2-fluorophenyl)-2H-1,4-benzodiazepine], the figures for the IC50 in experiment [1] (setting [3]) and in experiment [2] (setting [5]) were 74 µM and 80 µM, respectively.

Regarding `O=C(NCC1CNc2ccccc2C(c2ccccc2F)=N1)c1cc2ccccc2[nH]1` (racemic) [Example 100, 1,3-Dihydro-3(RS)-(2'-indolecarbonyl)aminomethyl-5-(2-fluorophenyl)-2H-1,4-benzodiazepine], the IC50 in experiment [1] (read-out: IC50 ^125 I-CCK Brain; guinea pig cerebral cortex, ^125 I-CCK-33, 25° C., 2 hours) was determined as 34 µM; in experiment [2] (read-out: IC50 ^125 I-Gastrin Gastric Glands, 25° C., 30 minutes) it was 22 µM.

As for `O=C(NC1N=C(c2ccccc2F)c2ccccc2NC1=O)c1cc2ccccc2[nH]1` (racemic) [Example 105, 1,3-Dihydro-5-(2-fluorophenyl)-3-(RS)-(2-indolecarbonylamino)-2H-1,4-benzodiazeoin-2-one], the IC50 was 3 µM in experiment [1] (setting [3]) and 4.6 µM in experiment [2] (setting [5]).

On to `O=C(NC1N=C(c2ccccc2F)c2ccccc2NC1=O)c1ccc([N+](=O)[O-])cc1` (racemic) [Example 106, 1,3-Dihydro-3-(RS)-(4-nitrophenlcarbonyl)amino-5-(2-fluorophenyl)-2H-1,4-benzodiazepin-2-one], for which the values for the IC50 in experiment [1] (setting [3]) and in experiment [2] (setting [5]) were more than 50 µM and more than 10 µM, respectively.

Regarding `O=C(NC1N=C(c2ccccc2F)c2ccccc2NC1=O)c1ccsc1` (racemic) [Example 108, 1,3-Dihydro-5-(2-fluorophenyl)-3-(RS)-(3-thiophenecarbonylamino)-2H-1,4-benzodiazepin-2-one], the IC50 in experiment [1] (setting [3]) was more than 50 µM; in experiment [2] (setting [5]) it was more than 10 µM.

Take `O=C(NC1N=C(c2ccccc2)c2ccccc2NC1=O)c1c[nH]c2ccccc12` (racemic) [Example 109, 1,3-Dihydro-3-(RS)-(3-indolecarbonylamino)-5-phenyl-2H-1,4-benzodiazepin-2-one]: the IC50 was found to be 8.4 µM in experiment [1] (setting [3]) and 18 µM in experiment [2] (setting [5]).

Regarding `CC(C)C[C@@H](NC(=O)OC(C)(C)C)C(=O)N1CC(C[C@H]2N=C(c3ccccc3F)c3ccccc3NC2=O)c2ccccc21` (stereo partly drawn) [Example 22, 1,3-Dihydro-5-(2-fluorophenyl)-3(R)-[3'-β-(1'-t-Boc-D-leucyl)-indolenyl]methyl-2H-1,4-benzodiazepin-2-one], the IC50 in experiment [1] (setting [3]) was more than 100 µM.

`CC(C)C[C@H](NC(=O)OC(C)(C)C)C(=O)N1CC(C[C@H]2N=C(c3ccccc3F)c3ccccc3NC2=O)c2ccccc21` (stereo partly drawn) [Example 23, 1,3-Dihydro-5-(2-fluorophenyl)-3(R)-[3'-α-(1'-t-Boc-L-leucyl)-indolenyl]methyl-2H-1,4-benzodiazepin-2-one]: in experiment [1] (setting [3]), the IC50 was more than 100 µM.

Values taken from US4820834A, “Benzodiazepine analogs” (priority 1987, dated 1989).
